The results in this text go back to patent US11414424B2, “Cardiac sarcomere inhibitors” (Cytokinetics, Inc., priority 2018, dated 2022).

SMILES strings stand for the structures.

For the assay, the system named is bovine cardiac myofibrils. The experiment in a line: Myofibril assay: PK/LDH-coupled steady-state ATPase activity of skinned bovine cardiac myofibrils. The class given is biochemical. As to conditions: Ca2+ activating to 75% of maximal rate. In short, it runs like this:
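Steady-state ATPase of detergent-skinned bovine left-ventricular myofibrils (1 mg/mL), PK/LDH-coupled NADH read at 340 nm, in PIPES/MgCl2 buffer pH 6.8 with 50 μM ATP, 0.6 mM EGTA and CaCl2 set for 50% or 75% activation. Inhibition of activity measured.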

In the case of `CNC(=O)N1CC2(C1)C(=O)N(c1ccc(Cl)cn1)CC(=O)N2Cc1ccc(C(F)(F)F)cc1` [Compound 156, 8-(5-chloropyridin-2-yl)-N-methyl-6,9-dioxo-5-(4-(trifluoromethyl)benzyl)-2,5,8-triazaspiro[3.5]-nonane-2-carboxamide], the “CDMF75 IC15” value was 7.1 µM.
Same read-out and setting: next, `CC(C)N1CC(=O)N(Cc2ccc(Cl)cc2)C2(CCN(c3cnn(C)c3)C2)C1=O` (centres unmarked) [Compound 78, 6-(4-chlorobenzyl)-9-isopropyl-2-(1-methyl-1H-pyrazol-4-yl)-2,6,9-triazaspiro[4.5]decane-7,10-dione]: 4.1 µM; `CCC1CCC(N2CC(=O)N(Cc3ccc(C(F)(F)F)cc3)C3(CN(C(C)=O)C3)C2=O)CC1` (centres unmarked) [Compound 323, 2-acetyl-8-(4-ethylcyclo-hexyl)-5-(4-(trifluoro-methyl)benzyl)-2,5,8-triazaspiro[3.5]nonane-6,9-dione]: 6.4 µM; `Cc1cc(CN2C(=O)CN(c3ncc(Cl)cc3F)C(=O)C2C2COC2)ccc1F` (centres unmarked) [Compound 667, 1-(5-chloro-3-fluoropyridin-2-yl)-4-(4-fluoro-3-methyl-benzyl)-3-(oxetan-3-yl)-piperazine-2,5-dione]: 1.1 µM.
Still for that read-out and setting: in the case of `Cc1cc(Cl)cnc1N1CC(=O)N(Cc2ccc(F)cc2)C2(CN(c3ccccn3)C2)C1=O` [Compound 883, 8-(5-chloro-3-methyl-pyridin-2-yl)-5-(4-fluoro-benzyl)-2-(pyridin-2-yl)-2,5,8-triazaspiro[3.5]-nonane-6,9-dione] it was 0.4 µM; in that of `O=C1C(C2CC(O)C2)N(Cc2ccc(C(F)(F)F)cc2)C(=O)CN1c1ncc(Cl)cc1F` (single isomer, unassigned) [Compound 740B, 1-(5-chloro-3-fluoropyridin-2-yl)-3-(3-hydroxycyclobutyl)-4-(4-(trifluoromethyl)benzyl)piperazine-2,5-dione], 0.97 µM.
In the case of `Cc1cc(Cl)cnc1N1CC(=O)N(Cc2ccc(Cl)cc2)C2(CN(c3ccc(F)cn3)C2)C1=O` [Compound 884, 8-(5-chloro-3-methyl-pyridin-2-yl)-5-(4-chloro-benzyl)-2-(5-fluoropyridin-2-yl)-2,5,8-triazaspiro[3.5]-nonane-6,9-dione], the “CDMF75 IC15” value came out at 0.5 µM.
Same read-out and setting: next, `O=C1CN([C@H]2CCOC2)C(=O)C2(CCN(c3ccccn3)C2)N1Cc1ccc(Cl)cc1` (stereo partly drawn) [Compound 94, 6-(4-chlorobenzyl)-2-(pyridin-2-yl)-9-((S)-tetra-hydrofuran-3-yl)-2,6,9-triazaspiro[4.5]decane-7,10-dione]: 36.1 µM; `CNC(=O)c1cccc(N2CC3(C2)C(=O)N(c2ccc(C#N)cc2F)CC(=O)N3Cc2ccc(C(F)(F)F)cc2)c1` [Compound 539, 3-(8-(4-cyano-2-fluorophenyl)-6,9-dioxo-5-(4-(trifluoromethyl)benzyl)-2,5,8-triazaspiro[3.5]nonan-2-yl)-N-methylbenzamide]: 0.2 µM; `CC(=O)N1CC2(C1)C(=O)N([C@H]1CC[C@H](C#N)CC1)CC(=O)N2Cc1ccc(C(F)(F)F)cc1` [Compound 325, (1r,4r)-4-(2-acetyl-6,9-dioxo-5-(4-(trifluoromethyl)benzyl)-2,5,8-triazaspiro[3.5]nonan-8-yl)cyclohexane-l-carbonitrile]: 22.8 µM.
Still for that read-out and setting: in the case of `CC(C)N1CC(=O)N(Cc2ccccc2C#N)C(c2ccc(Cl)cc2)C1=O` (centres unmarked) [Compound 301, 2-((2-(4-chlorophenyl)-4-isopropyl-3,6-dioxo-piperazin-1-yl)methyl)-benzonitrile] it was 18.6 µM; in that of `O=C1C([C@H]2C[C@@H](O)C2)N(Cc2ccc(C(F)(F)F)cc2)C(=O)CN1c1ncc(Cl)cc1F` (some centres unmarked) [Compound 739, 1-(5-chloro-3-fluoropyridin-2-yl)-3-((1 s,3s)-3-hydroxycyclobutyl)-4-(4-(trifluoromethyl)benzyl)piperazine-2,5-dione], 2.2 µM; in that of `CC(=O)N1CC2(C1)C(=O)N(C1CCCCCC1)CC(=O)N2Cc1ccc(C(F)(F)F)cc1` [Compound 326, 2-acetyl-8-cycloheptyl-5-(4-(trifluoromethyl)benzyl)-2,5,8-triazaspiro[3.5]-nonane-6,9-dione], 23.7 µM.
The same measure, in the same setting: next, `CC(C)N1CC(=O)N(Cc2ccc(Cl)cc2)C2(CCN(c3cnn(C)c3)C2=O)C1=O` (centres unmarked) [Compound 330, 6-(4-chlorobenzyl)-9-isopropyl-2-(1-methyl-1H-pyrazol-4-yl)-2,6,9-triazaspiro[4.5]decane-1,7,10-trione]: 10.7 µM.
For the compound `N#Cc1ccc(N2CC(=O)N(Cc3ccc(C(F)(F)F)cc3)[C@]3(CCN(C(=O)C4CC4)C3)C2=O)c(F)c1` [Compound 219, (S)-4-(2-(cyclopropane-carbonyl)-7,10-dioxo-6-(4-(trifluoromethyl)benzyl)-2,6,9-triazaspiro[4.5]decan-9-yl)-3-fluorobenzonitrile], the “CDMF75 IC15” value was 0.4 µM.
As for `CC(C)N1CC(=O)N(C(C)c2ccc(C(F)(F)F)cc2)C2(CN(c3ccccc3)C2)C1=O` (centres unmarked) [Compound 140, 8-isopropyl-2-phenyl-5-(1-(4-(trifluoromethyl)phenyl)-ethyl)-2,5,8-triazaspiro-[3.5]nonane-6,9-dione], the “CDMF75 IC15” value turned out to be 4.4 µM.
With `C=Cc1cnc(N2CC(=O)N(Cc3ccc(Cl)cc3)C(C3COC3)C2=O)c(F)c1` (centres unmarked) [Compound 723, 4-(4-chlorobenzyl)-1-(3-fluoro-5-vinylpyridin-2-yl)-3-(oxetan-3-yl)piperazine-2,5-dione], the “CDMF75 IC15” value is 7.1 µM.
On the same count and under the same terms, in the case of `CC(=O)N1CC2(C1)C(=O)N([C@H]1CC[C@H](C)CC1)CC(=O)N2Cc1ccc(C(F)(F)F)cc1` [Compound 322, 2-acetyl-8-((1r,4r)-4-methylcyclohexyl)-5-(4-(trifluoromethyl)benzyl)-2,5,8-triazaspiro[3.5]-nonane-6,9-dione] it was 10.8 µM; in that of `O=C1CN(c2ncc(Cl)cc2F)C(=O)C2(COC2)N1Cc1ccc(C(F)(F)F)cc1` [Compound 551, 8-(5-chloro-3-fluoropyridin-2-yl)-5-(4-(trifluoromethyl)-benzyl)-2-oxa-5,8-diazaspiro[3.5]nonane-6,9-dione], 2.48 µM.
Still for that read-out and setting: in the case of `CC(C)N1CC(=O)N(Cc2ccc(Cl)cc2)C2(CCN(c3ccc(C#N)cn3)C2)C1=O` (centres unmarked) [Compound 96, 6-(6-(4-chlorobenzyl)-9-isopropyl-7,10-dioxo-2,6,9-triazaspiro[4.5]decan-2-yl)nicotinonitrile] it was 4.5 µM; in that of `NC(=O)C12CC([C@@H]3C(=O)N(c4ncc(Cl)cc4F)CC(=O)N3Cc3ccc(C(F)F)cc3)(C1)C2` [Compound 822, (R)-3-(4-(5-chioro-3-fluoropyridin-2-yl)-3,6-dioxo-1-(4-(difluoro-methyl)benzyl)piperazin-2-yl)bicyclo[1.1.1]pentane-1-carboxamide], over 39 µM; in that of `CC(C)N1C(=O)C2(CN(c3ccccc3)C2)N(Cc2ccc(Cl)cc2)C(=O)C1C` (centres unmarked) [Compound 329, 5-(4-chlorobenzyl)-8-isopropyl-7-methyl-2-phenyl-2,5,8-triazaspiro-[3.5]nonane-6,9-dione], 9.3 µM.
On to `O=C1C(C23CC(O)(C2)C3)N(Cc2ccc(C(F)(F)F)cc2)C(=O)CN1c1ncc(Cl)cc1F` (single isomer, unassigned) [Enantiomer 838B, 1-(5-chloro-3-fluoropyridin-2-yl)-3-(3-hydroxybicyclo[1.1.1]pentan-1-yl)-4-(4-(trifluoromethyl)benzyl)piperazine-2,5-dione], for which, where the note is “listed as 838B”, the “CDMF75 IC15” value was over 39 µM.
`CC(C)N1CC(=O)N(Cc2ccc(Cl)cc2)C2(CCN(c3cccnn3)C2)C1=O` (centres unmarked) [Compound 79, 6-(4-chlorobenzyl)-9-isopropyl-2-(pyridazin-3-yl)-2,6,9-triazaspiro[4.5]-decane-7,10-dione]: the “CDMF75 IC15” value amounted to 3.8 µM.
In the case of `CC(C)N1CC(=O)N(Cc2ccc(Cl)cc2)C2(CN(c3ccnc(C4CC4)c3)C2)C1=O` [Compound 34, 5-(4-chlorobenzyl)-2-(2-cyclopropylpyridin-4-yl)-8-isopropyl-2,5,8-triazaspiro[3.5]nonane-6,9-dione], the “CDMF75 IC15” value was found to be 10.4 µM.
The same measure, in the same setting: in the case of `Cc1cc(Cl)cnc1N1CC(=O)N(Cc2ccc(Cl)cc2)C(C2(C)COC2)C1=O` (centres unmarked) [Compound 663, 1-(5-chloro-3-methylpyridin-2-yl)-4-(4-chlorobenzyl)-3-(3-methyloxetan-3-yl)-piperazine-2,5-dione] it was 7.3 µM.
Still for that read-out and setting: next, `CNC(=O)N1CC2(C1)C(=O)N(c1ccc(C(=O)OC)cc1)CC(=O)N2Cc1ccc(C(F)(F)F)cc1` [Compound 148, methyl 4-(2-(methylcarbamoyl)-6,9-dioxo-5-(4-(trifluoro-methyl)benzyl)-2,5,8-triazaspiro[3.5]nonan-8-yl)benzoate]: 2.3 µM; `CC(C)N1CC(=O)N(Cc2ccc(Cl)cc2)C2(CCN(c3ccccc3)C2)C1=O` (centres unmarked) [Compound 127, 6-(4-chlorobenzyl)-9-isopropyl-2-phenyl-2,6,9-triazaspiro[4.5]decane-7,10-dione]: 0.8 µM.
In the case of `N#Cc1ccc(N2CC(=O)N(Cc3ccc(C(F)(F)F)cc3)[C@]3(C[C@H](C(=O)N4CCOCC4)C3)C2=O)c(F)c1` [Compound 444B], the “CDMF75 IC15” value is 0.2 µM.
On the same count and under the same terms, next, `CC1(N2CC(=O)N(Cc3ccc(Cl)cc3)C3(CCN(c4ccccn4)C3)C2=O)CC1` (centres unmarked) [Compound 85, 6-(4-chlorobenzyl)-9-(1-methylcyclopropyl)-2-(pyridin-2-yl)-2,6,9-triazaspiro[4.5]decane-7,10-dione]: 14.3 µM.
Same read-out and setting: next, `CC(C)N1CC(=O)N(Cc2ccc(Cl)cc2)C(C)(c2ccc(Cl)cc2)C1=O` (centres unmarked) [Compound 316, 4-(4-chlorobenzyl)-3-(4-chlorophenyl)-1-isopropyl-3-methylpiperazine-2,5-dione]: 14.3 µM.
On to `COc1ccc(C2C(=O)N(C(C)C)CC(=O)N2Cc2ccc(Cl)cc2)cc1` (centres unmarked) [Compound 313, 4-(4-chlorobenzyl)-1-isopropyl-3-(4-methoxy-phenyl)piperazine-2,5-dione], for which the “CDMF75 IC15” value came out at 3.9 µM.
